According to patent US6716582B2 (priority 2000, dated 2004):

Tests used:
[1] = system: SOS regulon luxCDABE gene fusions; test: SOS regulon lux fusions: stress response in liquid LB; type: cell-based, E. coli; settings: each of the eight SOS fusion strains; at least three concentrations
Method: To test the stress responses, one or two single colonies of each selected strain were used to inoculate 5.0 ml of LB medium containing 150 μg/ml of ampicillin. These cultures were grown overnight at 37° C. then diluted by adding 50 μl or 100 μl of the overnight culture into 10.0 ml of fresh LB medium (without ampicillin) and grown with agitation at 37° C. until the culture was in exponential phase with readings on a Klett-Summerson colorimeter containing the red filter of between 10 and 40. These actively growing cultures were immediately used to initiate a stress response experiment by adding 50 μl of cultures to 50 μl of LB medium containing various concentrations of chemical in the wells a 96 well luminometer plate. This division of the actively growing culture at the time of chemical addition ensured identical populations were present when the stress was imposed. Light production was measured in a Dynex ML3000 luminometer at 37° C. The dimensionless units of light production, relative light units (RLU), are obtained by comparison with the light reading from an internal light-emitting diode.
The ability of these promoter-luxCDABE fusions to report activation of the SOS stress response was tested using nalidixic acid, a known, potent chemical inducer. The final concentrations of nalidixic acid were 1, 5, 25, and 125 μg/ml for all but strain DPD2293, which was tested at 80, 40, 20, 10, 5, 2.5, and 1.25 μg/ml.
Specificity of responses was tested by measuring the effect of ethanol on these SOS regulon gene fusions.

[2] = system: Luxarray 0.5 luxCDABE reporter clones; test: Luxarray 0.5 solid phase perturbation with nalidixic acid; type: cell-based, E. coli; settings: for bioluminescence response: solid phase, 1 or 5 μg/ml, 2 hrs
Method: A solid phase assay system consisting of reporter clones growing in the presence or absence of a perturbation, biological, environmental or chemical was developed. This was accomplished by growing the reporters on a porous membrane (Biodyne B, Nunc) seated on top of solid growth media in a culture dish (OmniTray, Nunc). Luminescence was measured either by a luminometer or by creating an image of the entire culture and quantitating the pixel density. Effects of perturbants can be determined by comparison of luminescence generated by treated and control cultures. Growth on the surface of the membrane allows the reporter assay to be moved between conditions as required. Experimental protocols often involve perturbations that prohibit long term exposure due to cell death or other irreversible effects. The ability to move the entire array to new growth conditions allows one a great variety of experimental schemes such as pulsed or pulse/chase exposures, reversibility, and short term kinetic studies.
Membranes were sterilized with UV illumination for 10 min then placed in contact with prewarmed media in a culture dish. The clones and controls were printed onto an approximately 8×12 cm membrane mimicking the pattern of a 96-well plate (FIG. 3A). Strains were printed to generate 8 repeating sections of the 10 strains and two controls and placed in a Dynex ML3000 luminometer prewarmed to 37° C. Luminescence data was collected for each spot for 40 cycles of 20 min duration (overnight). […] Without exception, the signal strength measured corroborated the data obtained in liquid culture. Additionally, replicates varied minimally, again similar to liquid culture measurements.
Next the system was evaluated for its ability to determine responses to perturbation, in this case, DNA damage caused by nalidixic acid. Parental clone and two nonresponding reporters, osmY, and lacZYA, and three DNA damage responsive reporters, uvrA, recA, dinG, were chosen. […] The membranes were moved to new, pre-warmed plates containing varying amounts of nalidixic acid and light readings collected with an ML3000 luminometer. […] Luminescence was measured with a Dynex ML3000 luminometer every 30 min for 2 hrs. […] The strain containing the parental plasmid, pDEW201, without a promoter driving luxCDABE expression produces very low levels of bioluminescence that are very close to the background measured on a ML3000 luminometer for strains grown in 96-well microplates. […]
The clones of Luxarray 0.5 were used to print arrays as described above at a 4×4 density. […] Spot intensity was determined using ArrayVision™ (Imaging Research, Toronto, Canada).

## CCn1cc(C(=O)O)c(=O)c2ccc(C)nc21 [Nalidixic acid, nalidixic acid]
[1]
  bioluminescence vs untreated control: increased bioluminescence
[2]; SOS regulon reporters uvrA, recA, dinG
  bioluminescence response: increased bioluminescence
[2]; five DNA damage-responsive reporters, high density array, 5 μg/ml, 0-8 hr
  reporter expression: upregulation of expression
[2]; lac promoter fusion and several other promoter fusions, high density array, 5 μg/ml
  light production: decreased
[2]; osmY and lacZYA fusions
  bioluminescence response: unaffected
